Data: patent publication US9974760B2, “Compositions and methods for treating cancer” (Chemo-Enhanced LLC, priority 2011, dated 2018)
“Also recorded” adds a separate entry of the source.

Assays:
cancer cells = assay: Taxol induced cancer cell death with pathway inhibitors/activators (FIGS. 4A-4D); type: cell-based; conditions: added to Taxol
Description: The molecular mechanism involved in C6-ceramide induced chemosensitization effects was examined by focusing on taxol.
To further confirm the requirement of AMPK activation in this synergistic effect, siRNA directed against AMPK can be used.

L3.6 pancreatic cells = type: in vivo
Description: Treatment was started 4 days after L3.6 cell injection with thrice weekly (3×/wk) intraperitoneal (i.p.) injections of paclitaxel 3.0 mg/ml with or without C6-ceramide (10 mg/ml) for 2 weeks. Mouse survival (FIGS. 2A and 2C), tumor volume (in cm^3; FIG. 2B), mouse body weight (in grams) were recorded (FIG. 2E). The average rate of tumor development was calculated by total tumor volume dividing by total number of days monitored (FIG. 2C).
(§1) SCID/Beige/Taconic nude male mice (22-25 g; 6-8 weeks old) were ear tagged and randomized into 4 different groups (Control, Ceramide, gemcitabine, Ceramide+gemcitabine) combining 5 mice each prior to inoculation subcutaneous (s.c.) with 2×10^6 L3.6 cells in a 0.1 ml volume into the internal surface of the right thigh. Treatment was started 4 days after L3.6 cell injection with thrice weekly (3×/wk) intraperitoneal (i.p.) injections of gemcitabine (two doses: 5.0 and 10.0 mg/ml) with or without C6-ceramide (10 mg/ml) for 2 weeks. Mouse survival (FIGS. 3A, 3B, and 3E) and tumor volume (in cm^3; FIGS. 3C and 3D) were recorded (FIG. 3E). Pancreatic cancer cell lines, including L3.6 cells (FIG. 3F), Panc-1 cells (FIG. 3G) and MIA-PaCa2 cells (MIA, FIG. 3H) were cultured in basic DMEM medium and were treated with gemcitabine (Gem, 1 μg/ml). Mitomycin C was always present in the media to prevent cell proliferation from occurring.
SCID/Beige/Taconic male mice were inoculated with 2×10^6 L3.6 pancreatic cells and treated […] 4 days post tumor implant with thrice weekly (3×/wk) intraperitoneal (I.P.) injections of paclitaxel (taxol) 3.0 mg/ml or gemcitabine (Gem) 10 mg/ml after treatment and were autopsied when near death (as per IRB committee). Mouse survival, tumor volume (in cm^3), and body weight (in grams) were recorded. Average rate of tumor development was calculated by dividing total tumor volume by total number of days monitored.
(§2) The possible combination effect of C6-ceramide on gemcitabine-induced cytotoxicity (in vitro) and regression (in vivo) of the L3.6 pancreatic cancer cell was also tested according to the methods described in Examples 2 and 3.

[1] = tested on: L3.6 pancreatic cancer cells; assay: Cell viability / cell death (MTT) in L3.6 pancreatic cancer cells; type: cell-based, human; conditions: LY 1 μM, rapamycin 100 nM, U0126 1 μg/ml; 48 hours
Description: L3.6 pancreatic cancer cells, cultured either in the basic DMEM medium or with 10% FBS, were treated with the indicated doses of taxol in the presence or absence of C6-ceramide (10 μg/ml) for 48 hours and cell viability was detected by MTT assay (FIGS. 1A-1B). L3.6 cells, cultured either in basic DMEM medium or with 10% FBS, were treated with the indicated dose of C6-ceramide in the presence or absence of taxol (1.5 μg/ml) for 48 hours and cell viability was detected by MTT assay (FIGS. 1C-1D). Mitomycin C (10 μg/ml) was always present in the media to prevent cell proliferation from occurring. The data represents the mean±SD of at least triplicate experiments. *P<0.05 versus group without C6-ceramide presents (FIGS. 1A-1B). **P<0.05 versus group without taxol presents (FIGS. 1C-1D).
as §1, with “FIGS. 3A-3H show synergistic anti-tumor effects of C6-ceramide and gemcitabine in vivo and in vitro. SCID/Beige/Taconic” for “SCID/Beige/Taconic”, “occurring. The data represent the mean±SD of at least triplicate experiments. *P<0.05 versus group without C6-ceramide presents. The experiments were repeated at least three times and similar results were observed.” for “occurring.”
(§3) Pancreatic cancer cell lines L3.6 cells were left untreated or treated with gemcitabine (Gem, 1 μg/ml) or taxol (1.5 μg/ml) in the presence or absence of C6-ceramide (10 μg/ml) for 2, 4 and 6 hours, AKT/mTORC1 and ERK activation were detected by Western Blot using indicated antibodies (FIGS. 5A and 5C). p-AKT (S473) and p-ERK at 4 hour time intervals for each treatment quantified (FIGS. 5B and 5D). L3.6 cells were pretreated with various inhibitors including PI3K/AKT inhibitor LY 294002 (LY, 1 μM), mTORC1 inhibitor rapamycin (100 nM), MEK/ERK inhibitor U0126 (1 μg/ml) or gemcitabine (1 μg/ml) for 48 hours, cell death was detected 48 hours later (FIG. 5E). The effects of the various inhibitors described above on AKT/mTORC1 and ERK activation were also detected by Western Blots using commercial available antibodies (FIG. 5F). *P<0.05 versus group without C6-ceramide presents. The experiments were repeated at least three times and similar results were observed.
Cell viability was measured by the 3-[4m5-dimethylthylthiazol-2-y]-2.5 diphenyltetrazolium bromide (MTT) method, as described in Cao et al. (2009) Sci. Signal, 2:RA17. Briefly, the cells were collected and seeded in 96-well plate at a density of 2×10^5 cells/cm^2. Different seeding densities were optimized at the beginning of the experiments. After overnight incubation cells were exposed to fresh medium containing indicated reagents at 37° C. After incubation for different time periods, 20 ul of MTT tetrazolium (Sigma, St. Louis, Mo.) salt dissolved in Hank's balanced solution at a concentration of 5 mg/ml was added to each well and incubated in a CO2 incubator for an additional 4 hours. The medium was subsequently aspirated from each well and 150 ul of DMSO (Sigma, St. Louis, Mo.) was added to dissolve formazan crystals and the absorbance of each well was obtained using a Dynatech MR5000 plate reader at a test wavelength of 490 nm with a reference wavelength of 630 nm. […]

Panc-1 cells = assay: Cell death in Panc-1 pancreatic cancer cells; type: cell-based; conditions: Panc-1; gemcitabine 1.5 μg/ml
Description: as §1, with “FIGS. 3A-3H show synergistic anti-tumor effects of C6-ceramide and gemcitabine in vivo and in vitro. SCID/Beige/Taconic” for “SCID/Beige/Taconic”, “Pancreatic cancer cell lines, including L3.6 cells (FIG. 3F), Panc-1 cells (FIG. 3G) and MIA-PaCa2 cells (MIA, FIG. 3H) were cultured in basic DMEM medium and were treated with gemcitabine (Gem, 1 μg/ml).” left out, “occurring. The data represent the mean±SD of at least triplicate experiments. *P<0.05 versus group without C6-ceramide presents. The experiments were repeated at least three times and similar results were observed.” for “occurring.”
(§4) Cell viability was measured by the 3-[4m5-dimethylthylthiazol-2-y]-2.5 diphenyltetrazolium bromide (MTT) method, as described in Cao et al. (2009) Sci. Signal, 2:RA17. Briefly, the cells were collected and seeded in 96-well plate at a density of 2×10^5 cells/cm^2. Different seeding densities were optimized at the beginning of the experiments. […] The medium was subsequently aspirated from each well and 150 ul of DMSO (Sigma, St. Louis, Mo.) was added to dissolve formazan crystals and the absorbance of each well was obtained using a Dynatech MR5000 plate reader at a test wavelength of 490 nm with a reference wavelength of 630 nm.
as §2, with “and 3. […] A synergistic anti-tumor effect of gemcitabine and C6-ceramide in multiple pancreatic cancer cells in vitro was also determined.” for “and 3.”

MIA-PaCa2 cells = assay: Cell death in MIA-PaCa2 pancreatic cancer cells; type: cell-based; conditions: MIA cells; gemcitabine 1.5 μg/ml
Description: as §1, with “FIGS. 3A-3H show synergistic anti-tumor effects of C6-ceramide and gemcitabine in vivo and in vitro. SCID/Beige/Taconic” for “SCID/Beige/Taconic”, “Pancreatic cancer cell lines, including L3.6 cells (FIG. 3F), Panc-1 cells (FIG. 3G) and MIA-PaCa2 cells (MIA, FIG. 3H) were cultured in basic DMEM medium and were treated with gemcitabine (Gem, 1 μg/ml).” left out, “occurring. The data represent the mean±SD of at least triplicate experiments. *P<0.05 versus group without C6-ceramide presents. The experiments were repeated at least three times and similar results were observed.” for “occurring.”
as §4
as §2, with “and 3. […] A synergistic anti-tumor effect of gemcitabine and C6-ceramide in multiple pancreatic cancer cells in vitro was also determined.” for “and 3.”

AKT/mTORC1 = assay: Western Blot of AKT/mTORC1 activation in L3.6 cells; type: cell-based
Description: as §3, with “5E).” for “5E). The effects of the various inhibitors described above on AKT/mTORC1 and ERK activation were also detected by Western Blots using commercial available antibodies (FIG. 5F). *P<0.05 versus group without C6-ceramide presents. The experiments were repeated at least three times and similar results were observed.”
(§5) As described in Cao et al. (2009) Sci. Signal, 2:RA17, aliquots of 30-40 μg of protein from each sample (treated as indicated in the legends) were separated by 10% SDS-polyacrylamide gel electrophoresis (SDS-PAGE) and transferred onto a polyvinylidene difluoride (PVDF) membrane (Millipore, Bedford, Mass.). After blocking with 10% instant nonfat dry milk for 1 hour, membranes were incubated with specific antibodies overnight at 4° C. followed by incubation with secondary antibodies (HRP-conjugated anti-rabbit or anti-mouse IgG at the appropriate dilutions) for 60 minutes to 1 hour at room temperature. Antibody binding was detected with the enhanced chemiluminescence (ECL) detection system (Amersham Biosciences, Piscataway, N.J.).

ERK = assay: Western Blot of ERK activation in L3.6 cells; type: cell-based
Description: as §3, with “5E).” for “5E). The effects of the various inhibitors described above on AKT/mTORC1 and ERK activation were also detected by Western Blots using commercial available antibodies (FIG. 5F). *P<0.05 versus group without C6-ceramide presents. The experiments were repeated at least three times and similar results were observed.”
as §5

[2] = tested on: L3.6 pancreatic cancer cells; assay: Cell viability / cell death (MTT) in L3.6 pancreatic cancer cells; type: cell-based, human; conditions: gemcitabine 1.5 μg/ml

`NC(=O)c1ncn([C@@H]2O[C@H](CO)[C@@H](O)[C@H]2O)c1N` [AICAR] was tested, and the “effect on Taxol induced cancer cell death” value (cancer cells) was “enhance”.
For `CCCCCCCCCCCCCCCCCCOC[C@H](COP(=O)(O)O[C@H]1[C@H](O)[C@@H](O)[C@H](O)C[C@H]1OC)OC` [AKT inhibitor II], the “Taxol induced cell death in vivo” value (L3.6 pancreatic cells; inhibitor plus taxol, pancreatic cancer model SCID mice, expected) was “enhance” and the “effect on Taxol induced cancer cell death” value (cancer cells) was “enhance”.
For `c1cc(-c2cnn3cc(-c4ccc(OCCN5CCCCC5)cc4)cnc23)ccn1` [Compound C], the “effect on Taxol induced cancer cell death” value (cancer cells) was “inhibits”.
For `N#CC(=C(N)Sc1ccccc1N)C(C#N)=C(N)Sc1ccccc1N` [U0126, 1,4-diamino-2,3-dicyano-1,4-bis [2-aminophenylthio]butadiene], the “effect on gemcitabine induced L3.6 cell death” value [1] was “largely enhanced; also recorded: sensitized” and the “effect on taxol induced L3.6 cell death” value [1] was “largely enhanced; also recorded: sensitized”.
With `Nc1ccn([C@@H]2O[C@H](CO)[C@@H](O)C2(F)F)c(=O)n1` [gemcitabine] the cancer cell death (Panc-1 cells) was “moderate effect”, the cancer cell death (MIA-PaCa2 cells) was “moderate effect” and the anti-tumor effect (L3.6 pancreatic cells; gemcitabine 10 mg/kg) was “moderate anti-tumor effect”. For the same compound, the “survival and tumor growth” value (L3.6 pancreatic cells; low dose gemcitabine 5 mg/kg) was “limited effect”, the “AKT/mTORC1 activation / signaling” value (AKT/mTORC1; L3.6 cells, Western Blot) was “no effect” and the PI3K/AKT/mTOR activation (AKT/mTORC1; Taxol alone) was “no effect”. For the same compound, the “effect on C6-ceramide induced AKT de-phosphorylation or inhibition” value (AKT/mTORC1; added to C6-ceramide) was “dramatically enhanced”, the “ERK activation / signaling” value (ERK; L3.6 cells, Western Blot) was “no effect” and the “effect on C6-ceramide inhibition of ERK activation” value (ERK; added to C6-ceramide) was “enhanced”. The cancer cell death [2] was “moderate effect”.
